Patent US20230404921A1, “LYOTROPIC LIQUID CRYSTALLINE PHASE PARTICLE” (priority 2020, published 2023)
Converted amounts (≈) assume the structure as drawn. Where two headings read alike, the source gives them in different places.

Legend:
[1] = tested on: Pseudomonas aeruginosa (ATCC 2835); assay: MTS based cell viability assay; details: for inhibition at 0.5 µg/mL: ATCC2835, drug conc 0.5 ug/ml; for inhibition at 2.5 µg/mL: ATCC2835, drug conc 2.5 ug/ml; for inhibition at 5 µg/mL: ATCC2835, drug conc 5 ug/ml; for inhibition at 7.5 µg/mL: ATCC2835, drug conc 7.5 ug/ml; for inhibition at 10 µg/mL: ATCC2835, drug conc 10 ug/ml; for inhibition at 15 µg/mL: ATCC2835, drug conc 15 ug/ml; for inhibition at 20 µg/mL: ATCC2835, drug conc 20 ug/ml; for inhibition at 25 µg/mL: ATCC2835, drug conc 25 ug/ml
[2] = tested on: fluconazole-resistant Cryptococcus neoformans; assay: Antimicrobial assay MIC-50 / MIC-90, 96 well plate; type: cell-based; details: for MIC50: Cryptococcus neoformans
[3] = tested on: Candida albicans (ATCC10251); assay: Fungal cell viability assay (MTS)
[4] = Pseudomonas aeruginosa, read-out: Percentage inhibition

Row | Structure (SMILES) | inhibition at 0.5 µg/mL [1, 4] [%] | inhibition at 2.5 µg/mL [1, 4] [%] | inhibition at 5 µg/mL [1, 4] [%] | inhibition at 7.5 µg/mL [1, 4] [%] | inhibition at 10 µg/mL [1, 4] [%] | inhibition at 15 µg/mL [1, 4] [%] | inhibition at 20 µg/mL [1, 4] [%] | inhibition at 25 µg/mL [1, 4] [%] | other results
1 | CC1(C)S[C@@H]2[C@H](NC(=O)[C@H](N)c3ccccc3)C(=O)N2[C@H]1C(=O)O [Ampicillin] | 39 | 39.8 | 41.9 | 42.8 | 46.4 | 62.2 | 69.9 | 72.3 | Percentage inhibition ([1]; drug conc 0.5 ug/ml): 38.64%
2 | OC(Cn1cncn1)(Cn1cncn1)c1ccc(F)cc1F [Fluconazole only, Fluconazole] |  |  |  |  |  |  |  |  | MIC50 ([2]; pH 5.17): 12.4 µg/mL (≈ 40.4 µM); MIC50 ([2]; pH 7.08, read-out: MIC-50): 12.2 µg/mL (≈ 39.7 µM); MIC-90 ([2]; pH 5.17): fails to reach MIC-90
3 | C[C@@H]1[C@H](O)[C@@H](C)/C=C/C=C/C=C/C=C/C=C/C=C/C=C/[C@H](O[C@@H]2O[C@H](C)[C@@H](O)[C@H](N)[C@@H]2O)C[C@@H]2O[C@](O)(C[C@@H](O)C[C@@H](O)[C@H](O)CC[C@@H](O)C[C@@H](O)CC(=O)O[C@H]1C)C[C@H](O)[C@H]2C(=O)O [amphotericin, Amphotericin B] |  |  |  |  |  |  |  |  | concentration required to achieve 98% inhibition [3]: 10 µg/mL
4 | CO[C@@H]1[C@@H](OC(N)=O)[C@@H](O)[C@H](Oc2ccc3c(O)c(NC(=O)c4ccc(O)c(CC=C(C)C)c4)c(=O)oc3c2C)OC1(C)C [novobiocin, Novobiocin] |  |  |  |  |  |  |  |  | inhibition at 80 µg/mL ([1]; Pseudomonas aeruginosa, ATCC2835, drug conc 80 ug/ml, read-out: Percentage inhibition): 13%
5 | CN[C@H](CC(C)C)C(=O)N[C@H]1C(=O)N[C@@H](CC(N)=O)C(=O)N[C@H]2C(=O)N[C@H]3C(=O)N[C@H](C(=O)N[C@H](C(=O)O)c4cc(O)cc(O)c4-c4cc3ccc4O)[C@H](O)c3ccc(c(Cl)c3)Oc3cc2cc(c3O[C@@H]2O[C@H](CO)[C@@H](O)[C@H](O)[C@H]2O[C@H]2C[C@](C)(N)[C@H](O)[C@H](C)O2)Oc2ccc(cc2Cl)[C@H]1O [vancomycin, Vancomycin] | 1.24 | 9.83 | 11.6 | 14.2 | 16.6 | 17.6 | 18 | 18.4 | 
